Test results reported in the NIST ThermoML archive (doi:10.1016/j.tca.2015.02.020).

Experiment: molar heat capacity at constant pressure; xn = mol fraction of the nth substance listed
Conditions: 101 kPa, Liquid, Small sample (50 mg) DSC

CC(O)CN (stereo unspecified) [1-amino-2-propanol] + O
Conditions	molar heat capacity at constant pressure [J/K/mol]
207.73 K, x1 = 0.68	127.89
209.98 K, x1 = 0.19	80.53
209.98 K, x1 = 0.26	88.72
210.13 K, x1 = 0.68	136.98
210.14 K, x1 = 0.16	76.29
212.31 K, x1 = 0.16	80.64
212.31 K, x1 = 0.19	81.68
212.31 K, x1 = 0.26	87.41
212.33 K, x1 = 0.15	76.55
212.46 K, x1 = 0.68	129.03
213.3 K, x1 = 0.19	80.82
213.3 K, x1 = 0.26	89.38
213.45 K, x1 = 0.16	76.84
213.45 K, x1 = 0.68	137.55
217.04 K, x1 = 0.19	82.55
217.04 K, x1 = 0.26	88.06
217.05 K, x1 = 0.16	81.72
217.07 K, x1 = 0.15	77.88
217.19 K, x1 = 0.68	129.59
219.93 K, x1 = 0.19	82.26
219.93 K, x1 = 0.26	90.36
220.08 K, x1 = 0.68	136.98
220.09 K, x1 = 0.16	76.56
221.78 K, x1 = 0.19	83.7
221.79 K, x1 = 0.16	83.08
221.79 K, x1 = 0.26	89.71
221.81 K, x1 = 0.15	79.21
221.94 K, x1 = 0.68	130.73
223.25 K, x1 = 0.19	82.84
223.25 K, x1 = 0.26	91.35
226.53 K, x1 = 0.16	84.44
226.53 K, x1 = 0.19	84.86
226.53 K, x1 = 0.26	91.02
226.55 K, x1 = 0.15	80.8
226.68 K, x1 = 0.68	132.44
229.89 K, x1 = 0.26	92.99
231.26 K, x1 = 0.19	86.01
231.26 K, x1 = 0.26	92.34
231.27 K, x1 = 0.16	85.52
231.3 K, x1 = 0.15	82.4
231.42 K, x1 = 0.68	133.57
233.2 K, x1 = 0.26	94.31
236.01 K, x1 = 0.16	86.88
236.01 K, x1 = 0.19	87.46
236.01 K, x1 = 0.26	93.65
236.04 K, x1 = 0.15	83.99
236.16 K, x1 = 0.68	135.28
239.85 K, x1 = 0.26	96.28
240.75 K, x1 = 0.16	88.51
240.75 K, x1 = 0.19	88.61
240.75 K, x1 = 0.26	94.96
240.78 K, x1 = 0.15	85.59
240.9 K, x1 = 0.68	136.98
243.17 K, x1 = 0.26	97.59
245.5 K, x1 = 0.16	89.6
245.5 K, x1 = 0.19	90.05
245.5 K, x1 = 0.26	96.61
245.53 K, x1 = 0.15	87.18
245.64 K, x1 = 0.68	138.69
249.82 K, x1 = 0.26	99.89
250.25 K, x1 = 0.16	90.95
250.25 K, x1 = 0.19	91.5
250.25 K, x1 = 0.26	97.92
250.28 K, x1 = 0.15	88.51
250.4 K, x1 = 0.68	140.39
253.15 K, x1 = 0.26	101.21
255 K, x1 = 0.16	91.77
255 K, x1 = 0.19	92.36
255 K, x1 = 0.26	99.24
255.03 K, x1 = 0.15	89.84
255.14 K, x1 = 0.68	142.67
259.75 K, x1 = 0.16	92.85
259.75 K, x1 = 0.19	93.81
259.75 K, x1 = 0.26	100.55
259.78 K, x1 = 0.15	90.9
259.8 K, x1 = 0.19	95.54
259.8 K, x1 = 0.26	103.51
259.89 K, x1 = 0.68	144.37
259.95 K, x1 = 0.16	93.4
259.95 K, x1 = 0.68	154.04
259.96 K, x1 = 0.15	93.83
263.13 K, x1 = 0.19	96.69
263.13 K, x1 = 0.26	104.82
263.27 K, x1 = 0.68	155.17
263.28 K, x1 = 0.16	94.48
263.29 K, x1 = 0.15	94.62
264.5 K, x1 = 0.16	93.94
264.5 K, x1 = 0.19	94.96
264.5 K, x1 = 0.26	101.87
264.53 K, x1 = 0.15	92.23
264.64 K, x1 = 0.68	146.65
269.26 K, x1 = 0.16	94.48
269.26 K, x1 = 0.19	95.83
269.26 K, x1 = 0.26	103.18
269.29 K, x1 = 0.15	93.29
269.4 K, x1 = 0.68	148.35
269.78 K, x1 = 0.19	98.71
269.79 K, x1 = 0.26	107.45
269.93 K, x1 = 0.68	158.01
269.94 K, x1 = 0.16	96.66
269.95 K, x1 = 0.15	96.75
273.12 K, x1 = 0.19	99.87
273.13 K, x1 = 0.26	108.44
273.27 K, x1 = 0.68	159.15
273.29 K, x1 = 0.15	97.28
273.29 K, x1 = 0.16	97.74
274.05 K, x1 = 0.16	95.3
274.05 K, x1 = 0.19	96.98
274.05 K, x1 = 0.26	104.49
274.09 K, x1 = 0.15	93.83
274.2 K, x1 = 0.68	150.62
278.96 K, x1 = 0.26	105.81
278.97 K, x1 = 0.16	96.11
278.97 K, x1 = 0.19	98.13
279 K, x1 = 0.15	94.89
279.12 K, x1 = 0.68	152.9
280 K, x1 = 0.19	101.02
280.01 K, x1 = 0.26	109.42
280.15 K, x1 = 0.68	160.29
280.17 K, x1 = 0.15	97.81
280.17 K, x1 = 0.16	98.83
283.44 K, x1 = 0.19	101.31
283.44 K, x1 = 0.26	110.08
283.59 K, x1 = 0.68	160.86
283.61 K, x1 = 0.16	99.37
283.62 K, x1 = 0.15	98.08
283.88 K, x1 = 0.16	96.38
283.88 K, x1 = 0.19	97.85
283.88 K, x1 = 0.26	106.79
283.92 K, x1 = 0.15	95.42
284.02 K, x1 = 0.68	155.17
